{"source": "patent US12534429B2", "about": "“Heterodimers of glutamic acid” (Molecular Insight Pharmaceuticals, Inc., priority 2006, dated 2026)", "key": {"LnCap cells": {"test_system": "LnCap cells", "experiment": "Rate of uptake and internalization (acid wash assay) of MIP-1072 in LNCaP cells", "assay_type": "cell-based, human", "conditions": "100 nM, 4° C. and 37° C.", "protocol": "In order to confirm the results of the Scatchard analysis of FIG. 7 indicating MIP-1072 internalization into LNCaP cells, the rate of uptake of MIP-1072 in LNCaP cells was monitored. Each well was dosed with 100 nM MIP-1072 (2 uCi/well) at 4° C. and 37° C. Binding to PSMA reached equilibrium after 15 min as evidenced by the plateau in the curve at 4° C. The cells incubated at 37° C. continued to internalize MIP-1072 after equilibrium had been reached.\nThe ability of MIP-1072 to internalize in LNCaP cells was confirmed by an acid wash assay (FIG. 19). LNCaP cells were incubated in HBS with 100 nM ^123I-MIP-1072 for 0-2 hours at 4 and 37° C. At the indicated time the media was removed and the cells were incubated in mild acid buffer (50 mM glycine, 150 mM NaCl, pH 3.0) at 4° C. for 5 minutes. After the brief incubation the cells were centrifuged at 20,000×g for 5 minutes. The supernatant and cell pellet were counted in a gamma counter. In order to confirm the results of the saturation binding analysis indicating MIP-1072 internalization into LNCaP cells, we monitored the rate of uptake of MIP-1072 in LNCaP cells. Each well was dosed with 100 nM MIP-1072 (2 uCi/well) at 4° C. and 37° C. Binding to PSMA reached equilibrium after 15 min as evidenced by the plateau in the curve at 4° C. The cells incubated at 37° C. continued to internalize MIP-1072 after equilibrium had been reached. […] (FIG. 19)."}, "[1]": {"test_system": "PSMA positive LNCaP xenografts", "assay_type": "in vivo, male NCr Nude mice", "protocol": "Tissue biodistribution of I^23I-MIP-1072 (2 μCi/mouse, >1,000 mCi/μmole) was assessed in selected tissues from LNCaP (PSMA positive) tumor bearing nude mice. Results are expressed as the percent of the injected dose per gram of the selected tissues (% ID/g).\n(§1) FIG. 21 Uptake of ^23I-MIP-1072 in LNCaP and PC3 xenograft bearing mice.\n(§2) A quantitative analysis of the tissue distribution of ^123I-MIP-1072 was performed in separate groups of male NCr Nude^−/− mice bearing PSMA positive LNCaP xenografts (approximately 100-200 mm^3) administered via the tail vein as a bolus injection (approximately 2 μCi/mouse) in a constant volume of 0.05 ml. The animals (n=5/time point) were euthanized by asphyxiation with carbon dioxide at 0.25, 1, 2, 4, 8, and 24 hours post injection. Tissues (blood, heart, lungs, liver, spleen, kidneys, adrenals, stomach, large and small intestines (with contents), testes, skeletal muscle, bone, brain, adipose, and tumor) were dissected, excised, weighed wet, transferred to plastic tubes and counted in an automated γ-counter (LKB Model 1282, Wallac Oy, Finland). […] MIP-1072, uptake and exposure was greatest in the kidney and LNCaP xenograft which express high levels of PSMA. Peak uptake in the kidney was 158±46% ID/g at 2 hours and the LNCaP xenograft was 17±6% ID/g at 1 hours (FIG. 20)."}, "[2]": {"test_system": "PC3 tumors which do not express PSMA", "experiment": "Tumor uptake of 123I-MIP-1072 in PC3 xenograft bearing mice", "assay_type": "in vivo, male NCr Nude mice", "conditions": "1 hour post injection", "protocol": "as §1, §2"}}, "data": [{"smiles": "O=C(O)CC[C@H](NC(=O)N[C@@H](CCCCNCc1ccc([123I])cc1)C(=O)O)C(=O)O", "note": "[123I-MIP-1072]", "values": [{"measurement": "internalization in LNCaP cells", "setting": "LnCap cells", "result": "internalized at 37 °C but not at 4 °C"}, {"measurement": "tumor and kidney uptake after pretreatment with PMPA", "setting": "[1]; 50 mg/kg PMPA 5 minutes prior to injection, 1 hour post injection", "result": "blocked"}, {"measurement": "localization to PSMA expressing LNCaP tumors", "setting": "[1]; 1 hour post injection", "result": "localization to PSMA expressing LNCaP tumors"}, {"measurement": "peak uptake in the LNCaP xenograft", "setting": "[1]; at 1 hours post injection, tail vein bolus", "result": "17±6", "unit": "% ID/g"}, {"measurement": "localization to PC3 tumors", "setting": "[2]", "result": "not PC3 tumors"}]}]}
